Laboratory results from the Kinase Knowledgebase extract (Sharma et al. 2016).
Where “and” joins values, the source holds several entries; their conditions need not be identical. Equal values may be shown once.

biological target: EGFR (human), P00533 [WT]; conditions: not given
Sequence (P00533 whole entry, looked up): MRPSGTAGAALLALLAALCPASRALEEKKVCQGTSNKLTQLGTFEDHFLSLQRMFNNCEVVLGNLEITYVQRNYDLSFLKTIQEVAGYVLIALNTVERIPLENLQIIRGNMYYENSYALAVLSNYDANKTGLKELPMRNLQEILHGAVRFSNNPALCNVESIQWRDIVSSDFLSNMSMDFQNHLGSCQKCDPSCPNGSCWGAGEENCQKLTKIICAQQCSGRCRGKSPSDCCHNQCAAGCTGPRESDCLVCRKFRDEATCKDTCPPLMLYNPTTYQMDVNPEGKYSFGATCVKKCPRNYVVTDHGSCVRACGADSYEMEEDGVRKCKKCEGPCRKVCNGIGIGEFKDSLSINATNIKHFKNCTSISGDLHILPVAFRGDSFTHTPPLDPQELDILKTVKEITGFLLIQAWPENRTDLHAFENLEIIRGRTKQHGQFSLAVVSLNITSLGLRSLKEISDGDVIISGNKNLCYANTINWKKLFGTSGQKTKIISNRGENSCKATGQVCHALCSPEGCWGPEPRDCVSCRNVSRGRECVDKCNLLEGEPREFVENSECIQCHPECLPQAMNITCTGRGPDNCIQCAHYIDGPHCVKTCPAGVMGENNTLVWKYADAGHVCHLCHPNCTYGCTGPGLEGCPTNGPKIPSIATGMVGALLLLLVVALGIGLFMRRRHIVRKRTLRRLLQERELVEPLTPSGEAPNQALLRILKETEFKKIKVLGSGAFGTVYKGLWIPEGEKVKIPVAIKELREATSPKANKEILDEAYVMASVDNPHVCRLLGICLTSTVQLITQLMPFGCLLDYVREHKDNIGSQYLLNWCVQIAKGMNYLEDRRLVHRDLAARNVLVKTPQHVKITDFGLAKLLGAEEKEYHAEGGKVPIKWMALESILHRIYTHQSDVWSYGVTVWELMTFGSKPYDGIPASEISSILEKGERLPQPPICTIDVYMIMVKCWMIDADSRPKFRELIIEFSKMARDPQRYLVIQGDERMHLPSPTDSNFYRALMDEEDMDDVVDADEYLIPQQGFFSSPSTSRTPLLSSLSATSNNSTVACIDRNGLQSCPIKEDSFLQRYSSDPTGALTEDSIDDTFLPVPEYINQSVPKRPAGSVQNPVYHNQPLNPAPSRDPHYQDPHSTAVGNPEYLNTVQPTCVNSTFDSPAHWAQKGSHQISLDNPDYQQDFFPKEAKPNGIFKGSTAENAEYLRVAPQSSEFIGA

**Q.** For `C[C@@H](Nc1ncnc2sc3c(c12)CCCC3)c1ccccc1`, which IC50 is on record?
**A.** Its IC50 is 3.24 µM.

**Q.** For `c1ccc(CNc2ncnc3sc4c(c23)CCCC4)cc1`, which IC50 is on record?
**A.** Its IC50 is 2.6 µM.

**Q.** How did the IC50 turn out when `CN(C)C/C=C/C(=O)N1CCc2c(sc3ncnc(N[C@H](CO)c4ccccc4)c23)C1` was run?
**A.** Its IC50 is 0.007 µM and 0.006 µM.

biological target: EGFR (human) (UniProt P00533); conditions: hcc827
Sequence (P00533 whole entry, looked up): as above

**Q.** With `c1ccc(CNc2ncnc3sc4c(c23)CCCC4)cc1` as the compound, how does the IC50 read?
**A.** The IC50 was over 10 µM.

biological target: EGFR (Human), P00533 [T790M/L858R]; conditions: not given
Sequence (P00533 whole entry T790M/L858R, looked up): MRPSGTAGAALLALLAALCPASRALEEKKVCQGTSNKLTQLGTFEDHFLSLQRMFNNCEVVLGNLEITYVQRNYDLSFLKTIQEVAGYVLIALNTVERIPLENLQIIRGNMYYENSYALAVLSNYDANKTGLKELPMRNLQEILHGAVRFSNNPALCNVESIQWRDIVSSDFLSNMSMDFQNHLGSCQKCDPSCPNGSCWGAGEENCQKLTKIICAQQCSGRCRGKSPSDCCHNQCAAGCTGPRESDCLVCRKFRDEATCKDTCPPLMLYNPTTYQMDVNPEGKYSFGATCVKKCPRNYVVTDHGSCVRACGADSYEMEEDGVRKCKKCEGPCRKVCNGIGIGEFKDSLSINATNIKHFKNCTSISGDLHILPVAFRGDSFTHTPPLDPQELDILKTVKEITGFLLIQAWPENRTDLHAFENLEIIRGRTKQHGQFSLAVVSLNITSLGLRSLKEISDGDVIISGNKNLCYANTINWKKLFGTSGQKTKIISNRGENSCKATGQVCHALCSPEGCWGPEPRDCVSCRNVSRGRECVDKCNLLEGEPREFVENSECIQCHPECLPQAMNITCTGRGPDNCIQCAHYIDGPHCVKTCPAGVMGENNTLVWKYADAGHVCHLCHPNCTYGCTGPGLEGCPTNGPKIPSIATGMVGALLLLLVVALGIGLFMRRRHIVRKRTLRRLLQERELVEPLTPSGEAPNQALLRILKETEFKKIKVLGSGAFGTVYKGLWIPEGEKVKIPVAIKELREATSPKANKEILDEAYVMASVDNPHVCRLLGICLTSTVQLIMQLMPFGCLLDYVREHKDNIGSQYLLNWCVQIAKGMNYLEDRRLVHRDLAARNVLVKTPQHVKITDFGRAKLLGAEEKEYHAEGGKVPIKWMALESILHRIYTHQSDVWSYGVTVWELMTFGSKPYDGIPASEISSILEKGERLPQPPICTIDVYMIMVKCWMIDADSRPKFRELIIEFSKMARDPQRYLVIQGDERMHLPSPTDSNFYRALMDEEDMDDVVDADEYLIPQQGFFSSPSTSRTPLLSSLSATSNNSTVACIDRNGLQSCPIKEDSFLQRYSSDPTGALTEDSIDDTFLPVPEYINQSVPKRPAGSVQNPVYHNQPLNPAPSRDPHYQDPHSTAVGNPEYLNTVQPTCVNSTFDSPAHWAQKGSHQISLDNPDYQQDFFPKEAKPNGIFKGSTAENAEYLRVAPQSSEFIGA

**Q.** How did the IC50 turn out when `OC[C@@H](Nc1ncnc2sc3c(c12)CCNC3)c1ccccc1` was run?
**A.** Its IC50 is over 10 µM.

**Q.** Which IC50 does the source give for `c1ccc(CNc2ncnc3sc4c(c23)CCCC4)cc1` here?
**A.** Its IC50 is over 10 µM.

**Q.** `CCC(=O)N1CCc2c(sc3ncnc(N[C@H](CO)c4ccccc4)c23)C1` was tested. Which IC50 did it give?
**A.** Its IC50 is over 10 µM.

**Q.** How did the IC50 turn out when `CN(C)C/C=C/C(=O)N1CCc2c(sc3ncnc(NCCO)c23)C1` was run?
**A.** The IC50 was over 10 µM.

**Q.** `C=CC(=O)N1CCc2c(sc3ncnc(N[C@@H](CO)c4ccccc4)c23)C1` was tested. Which IC50 did it give?
**A.** The IC50 was over 10 µM.

**Q.** With `CN1CCN(C/C=C/C(=O)N2CCc3c(sc4ncnc(N[C@H](CO)c5ccccc5)c34)C2)CC1` as the compound, how does the IC50 read?
**A.** The IC50 was over 10 µM.

**Q.** For `CN(C)C/C=C/C(=O)N1CCc2c(sc3ncnc(N[C@@H](CO)c4ccccc4)c23)C1`, which IC50 is on record?
**A.** The IC50 was over 10 µM.

**Q.** With `O=C(/C=C/c1ccccc1)N1CCc2c(sc3ncnc(N[C@H](CO)c4ccccc4)c23)C1` as the compound, how does the IC50 read?
**A.** Its IC50 is over 10 µM.

**Q.** `OC[C@@H](Nc1ncnc2sc3c(c12)CCCC3)c1ccccc1` was tested. Which IC50 did it give?
**A.** The IC50 was over 10 µM.
